Results from article PMC4264174, “The Discovery of Aurora Kinase Inhibitor by Multi-Docking-Based Virtual Screening” (International Journal of Molecular Sciences, 2014).

What was measured:
Aurora-A (h) = molecular target: T1, Aurora-A (h) (Homo sapiens, UniProt O14965); assay: Kinase Profiler in vitro assay (Merck Millipore), aurora-A; assay type: biochemical; conditions: for IC50: at aurora A (h); for inhibition at 100 µM: Aurora-A, at 100 μM concentration, with standard deviation
T1 construct: purchased Merck Millipore, Inc. (Abingdon, UK), Kinase Profiler service
T1 sequence (O14965 1-403): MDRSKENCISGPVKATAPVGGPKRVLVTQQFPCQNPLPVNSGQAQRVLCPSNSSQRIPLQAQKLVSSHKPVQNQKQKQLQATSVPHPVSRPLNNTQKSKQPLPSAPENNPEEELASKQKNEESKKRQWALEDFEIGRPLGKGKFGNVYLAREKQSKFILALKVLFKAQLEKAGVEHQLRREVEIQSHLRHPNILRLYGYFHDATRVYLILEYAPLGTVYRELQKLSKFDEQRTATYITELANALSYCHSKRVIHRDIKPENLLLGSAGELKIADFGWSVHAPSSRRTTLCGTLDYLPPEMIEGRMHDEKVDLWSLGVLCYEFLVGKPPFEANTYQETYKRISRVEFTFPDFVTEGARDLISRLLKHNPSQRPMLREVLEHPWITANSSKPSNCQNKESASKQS
Description: The fragments obtained from the above-mentioned docking study were purchased from commercial websites and evaluated using the Kinase Profiler in vitro assay technique developed by Merck Millipore, Inc., (Abingdon, UK). The aurora-A kinase was maintained with 8 mM […] at pH 7.0, 0.2 mM EDTA, 200 μM LRRASLG (Kemptide, American peptide Company, Sunnyvale, CA, USA), 10 mM MgAcetate, and [γ-33P-ATP]. The kinase reaction began with the addition of the MgATP mixture. The buffer-MgATP mixture was incubated for 40 min at room temperature. After incubation, the reaction was stopped through the addition of a 3% phosphoric acid solution. Then, a 10 μL reaction was spotted onto a P30 filtermat. The spotted P30 filtermat was washed three times for 5 min in 50 mM phosphoric acid and once in methanol prior to the drying and scintillation counting step.

Aurora-B (h) = molecular target: T2, Aurora-B (h) (Homo sapiens, UniProt Q96GD4); assay: Kinase Profiler in vitro assay, aurora-B; assay type: biochemical
T2 construct: purchased Merck Millipore, Inc. (Abingdon, UK), Kinase Profiler service

Aurora-C (h) = molecular target: T3, Aurora-C (h) (Homo sapiens, UniProt Q9UQB9); assay: Kinase Profiler in vitro assay, aurora-C; assay type: biochemical
T3 construct: purchased Merck Millipore, Inc. (Abingdon, UK), Kinase Profiler service
T3 sequence (Q9UQB9 1-309): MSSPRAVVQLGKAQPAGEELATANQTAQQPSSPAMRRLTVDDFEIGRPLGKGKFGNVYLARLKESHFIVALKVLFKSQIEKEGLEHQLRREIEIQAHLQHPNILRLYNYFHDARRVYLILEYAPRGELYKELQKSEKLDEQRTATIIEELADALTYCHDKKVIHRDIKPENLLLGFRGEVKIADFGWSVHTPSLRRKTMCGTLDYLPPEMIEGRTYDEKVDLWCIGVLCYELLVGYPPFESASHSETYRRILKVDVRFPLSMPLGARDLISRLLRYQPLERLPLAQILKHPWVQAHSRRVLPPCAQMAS

aurora-A = conditions: cited from earlier work

T2 sequence (Q96GD4 whole entry): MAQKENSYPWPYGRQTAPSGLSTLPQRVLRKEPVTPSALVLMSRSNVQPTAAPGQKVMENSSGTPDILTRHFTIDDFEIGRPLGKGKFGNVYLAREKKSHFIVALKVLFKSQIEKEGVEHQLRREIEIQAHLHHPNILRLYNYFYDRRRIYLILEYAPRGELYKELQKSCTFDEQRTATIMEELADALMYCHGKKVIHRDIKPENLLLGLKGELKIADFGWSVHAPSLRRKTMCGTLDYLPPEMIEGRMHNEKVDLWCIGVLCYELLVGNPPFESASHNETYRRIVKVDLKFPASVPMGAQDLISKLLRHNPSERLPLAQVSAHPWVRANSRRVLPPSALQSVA

Compound | inhibition at 100 µM (Aurora-A (h)) [%] | further results
O=C1C(Nc2ccc(Cl)cc2)=C(Cl)C(=O)c2[nH]c(C(F)(F)F)nc21 [Compound 16] | – | inhibition at 10 µM (Aurora-A (h)): 52%; IC50 (Aurora-A (h)): 9.17 µM; inhibition at 10 µM (Aurora-B (h)): 84 ± 1%; inhibition at 10 µM (Aurora-C (h)): 8 ± 8%
O=C1C(Nc2cccc(Cl)c2)=C(Cl)C(=O)c2[nH]c(C(F)(F)F)nc21 [Compound 17] | – | inhibition at 10 µM (Aurora-A (h)): 65%; IC50 (Aurora-A (h)): 7.47 µM; inhibition at 10 µM (Aurora-B (h)): 76 ± 1%; inhibition at 10 µM (Aurora-C (h)): 17 ± 4%
Cc1cc(C)cc(Nc2ncc3c(n2)C[C@@H](c2cccs2)CC3=O)c1 [Fragment 3] | > 50 | –
Cc1nonc1-c1ccnc2nnc(N)n12 [Fragment 9] | 8 ± 10 | –
COc1cnc(NCc2ncn[nH]2)nc1-c1ccnn1C [Fragment 11] | 25 ± 2 | –
O=C1C=CC(=O)c2[nH]c(C(F)(F)F)nc21 [Fragment 12] | 93 ± 2 | –
Cc1nnsc1C(=O)Nc1onc2c1CSC2 [Fragment 13] | > 50 | –
O=C(Nc1onc2c1CCCC2)c1nc(-c2cnccn2)no1 [Fragment 14] | 39 ± 3 | –
C/C=C/C(=O)Nn1cnc2c(cnn2-c2ccccc2)c1=O [Fragment 15] | 2 ± 15 | –
CN[C@@H]1C[C@H]2O[C@@](C)([C@@H]1OC)n1c3ccccc3c3c4c(c5c6ccccc6n2c5c31)C(=O)NC4 [Staurosporine, reference compound] | – | inhibition at 10 µM (Aurora-A (h)): 100%

Now from value to molecule, other results behind:

inhibition at 100 µM (Aurora-A (h)) [%] | Compound | further results
13 ± 12 | O=c1cc(-c2ccccc2)[nH]c2nc(SCc3ccccc3)nn12 [Fragment 2] | –
28 ± 1 | COC(=O)CSc1nnc(-c2n[nH]c3c2CCC3)n1N [Fragment 4] | –
31 ± 6 | Cc1nn2c(nc3ccccc32)[nH]c1=O [Fragment 5] | –
35 ± 3 | COC(=O)/C=C1\S/C(=N\NC(=O)c2snnc2C)NC1=O [Fragment 7] | –
24 ± 4 | COC(=O)c1nc2[nH]c(=O)cc(C)n2n1 [Fragment 8] | –
